Measured values published in patent US12202815B2, “Selective androgen receptor degrader (SARD) ligands and methods of use thereof” (priority 2018, dated 2025).
Several values for one entry are separate records, joined by “and”; a condition that tells them apart may be missing. Equal values may be shown once. Entries after “also recorded” stand apart in the source; their conditions may differ. Read-outs that look alike come from different tables or passages of the source.

Tests used:
[1] = High dose Hershberger experiment, 7 days oral; type: in vivo, Sprague Dawley rat; settings: for Body wt. on sac. day / Day 0 body wt.: individual animals
Procedure: Body weights were recorded on day 0 and day 7 (Table 4B). On day 7, animals were sacrificed and organs were observed.

[2] = tested on: >160 GPCR's; test: gpcrMAX panel, PathHunter beta-arrestin antagonist primary screen; type: cell-based
Procedure: The assays were performed utilizing the PathHunter beta-arrestin enzyme fragment complementation (EFC) technology.
The PathHunter® β-Arrestin assay monitors the activation of a GPCR in a homogenous, non-imaging assay format using a technology developed by DiscoveRx called Enzyme Fragment Complementation (EFC) with β-galactosidase (β-Gal) as the functional reporter. […] EA is fused to β-Arrestin and ED is fused to the GPCR of interest. When the GPCR is activated and β-Arrestin is recruited to the receptor, ED and EA complementation occurs, restoring β-Gal activity which is measured using chemiluminescent PathHunter® Detection Reagents.
PathHunter cell lines were expanded from freezer. Cells were seeded in a total volume of 20 μL into white walled, 384-well microplates and incubated at 37° C. for the appropriate time prior to testing.
Intermediate dilution of sample stocks was performed to generate 5× sample in assay buffer. […]
Microplates were read following signal generation with a PerkinElmer Envision™ instrument for chemiluminescent signal detection.
Compound activity was analyzed using CBIS data analysis suite (ChemInnovation, CA). For antagonist mode assays, percentage inhibition was calculated using the following formula: % Inhibition=100%×(1−(mean RLU of test sample−mean RLU of vehicle control)/(mean RLU of EC80 control−mean RLU of vehicle control) [where RLU is relative light unit]).

[3] = tested on: MDVR (enzalutamide-resistant VCaP prostate cancer cells); test: MDVR xenograft in SRG rats, 30 days oral dosing; settings: rat, in vivo
Procedure: Male Sprague Dawley Rag2−/−; Il2rg−/− (SRG) rats were housed in group of three rats/cage. They were provided with food and water ad libitum and were maintained in a 12 hour light/dark cycle.
Cell inoculations were carried out in a Class II/A2 biosafety cabinet. The surgical space was cleaned with Clidox® and sterile drapes were placed on the surface. The animals were anesthetized using inhaled isoflurane. Prior to injection, the hind flank was shaved and cleaned with alcohol prep pads. Animals were placed back in their home cage and monitored until they recovered and sternal recumbency was observed.
Cell inoculation: All animals were inoculated with a total volume of 500 μL subcutaneously in the left hind flank. The inoculation suspension consisted of 250 μL of cell suspension mixed with 250 μL of Matrigel, diluted to 10 mg/mL working solution with DMEM, which was mixed on ice immediately by pipetting the cells into the Matrigel using a p1000 micropipette fitted with a sterile aerosol resistant tip prior to injection. The final concentration of Matrigel was 5 mg/mL. […] Each needle/syringe was used for only 1 animal.
SARDs were dissolved at 5-, 10-, or 15 mg/mL in vehicle in a biosafety cabinet using sterile reagents and consumables.
One-way ANOVA and Tukey's post-hoc test were used to compare the difference in percent change in body weight among treatment groups. […]

[4] = in vivo; settings: male, Sprague Dawley, rat, 20 mpk
[5] = for Conc. 1065: individual rat serum
[6] = molecular target: T1, GSK3A (Homo sapiens, UniProt P49840); test: KINOMEscan competition binding assay; settings: lower numbers indicate stronger hits
T1 construct: T7 phage fusion or DNA label for qPCR; purchased DiscoveRx
Procedure: (§1) Screening “hits” are identified by measuring the amount of kinase captured in test versus control samples by using a quantitative, precise and ultra-sensitive qPCR method that detects the associated DNA label.
(§2) For most assays, kinase-tagged T7 phage strains were grown in parallel in 24-well blocks in an E. coli host derived from the BL21 strain. […] The lysates were centrifuged (6,000×g) and filtered (0.2 μm) to remove cell debris. The remaining kinases were produced in HEK-293 cells and subsequently tagged with DNA for qPCR detection. […] The liganded beads were blocked with excess biotin and washed with blocking buffer (SeaBlock (Pierce), 1% BSA, 0.05% Tween 20, 1 mM DTT) to remove unbound ligand and to reduce non-specific phage binding. […] Test compounds were prepared as 40× stocks in 100% DMSO and directly diluted into the assay. All reactions were performed in polypropylene 384-well plates in a final volume of 0.02 ml. […] The kinase concentration in the eluates was measured by qPCR.

[7] = Pharmacokinetics in male Sprague Dawley rats (oral 7 days, iv Day 1); settings: male, Sprague Dawley, rat, in vivo
Procedure: At initial dosing, the animals were 12 weeks of age. The animals were group housed (up to three animals/cage/group) in polycarbonate cages with hardwood chip bedding. […] Water was provided fresh daily, ad libitum. […] As necessary, the 12-hour dark cycle was interrupted to accommodate study procedures. […] Individual doses were calculated based on body weights recorded on Day 1 and Day 7 of dose administration. […] A single intravenous dose was administered via a tail vein and blood sample on Day 1.
Animals were weighed at the time of animal selection and on Day 1 and Day 7 of dose administration.
Centrifugation began within 1 hour of collection. Plasma was placed into 96-well tubes with barcode labels. Plasma was maintained on dry ice prior to storage at approximately −70° C. Drug concentrations were measured by established chromatography/mass spectrometry (LC-MS/MS) methods.

[8] = RLM metabolism half-life; type: in vitro ADME; settings: rat liver microsomes
Procedure: (§3) The assay was done in a final volume of 0.5 ml in duplicates (n=2). […] After pre-incubation, reaction was started by addition of 1 mM NADPH (pre-incubated at 37° C.). Incubations were carried out in triplicate and at various time-points (0, 5, 10, 15, 30 and 60 minutes) 100 μl aliquots were removed and quenched with 100 μl of acetonitrile containing internal standard. Samples were vortex mixed and centrifuged at 4000 rpm for 10 minutes. The supernatants were transferred to 96 well plates and submitted for LC-MS/MS analysis. As control, sample incubations done in absence of NADPH were included. From % PCR (% Parent Compound Remaining), rate of compound disappearance is determined (slope) and in vitro CLint (μl/min/mg protein) was calculated.

[9] = type: in vitro ADME; settings: human liver microsomes
Procedure: as §3

[10] = molecular target: T2, MYLK (Homo sapiens, UniProt Q15746); test: KINOMEscan competition binding assay; settings: lower numbers indicate stronger hits
T2 construct: T7 phage fusion or DNA label for qPCR; purchased DiscoveRx
Procedure: as §1, §2

[11] = tested on: >450 human kinases and mutant variants; test: KINOMEscan panel cross-reactivity profile; type: binding; settings: panel of >460 kinases and mutants
Procedure: as §1, §2

T2 sequence (Q15746 whole entry, the tested form may be a part): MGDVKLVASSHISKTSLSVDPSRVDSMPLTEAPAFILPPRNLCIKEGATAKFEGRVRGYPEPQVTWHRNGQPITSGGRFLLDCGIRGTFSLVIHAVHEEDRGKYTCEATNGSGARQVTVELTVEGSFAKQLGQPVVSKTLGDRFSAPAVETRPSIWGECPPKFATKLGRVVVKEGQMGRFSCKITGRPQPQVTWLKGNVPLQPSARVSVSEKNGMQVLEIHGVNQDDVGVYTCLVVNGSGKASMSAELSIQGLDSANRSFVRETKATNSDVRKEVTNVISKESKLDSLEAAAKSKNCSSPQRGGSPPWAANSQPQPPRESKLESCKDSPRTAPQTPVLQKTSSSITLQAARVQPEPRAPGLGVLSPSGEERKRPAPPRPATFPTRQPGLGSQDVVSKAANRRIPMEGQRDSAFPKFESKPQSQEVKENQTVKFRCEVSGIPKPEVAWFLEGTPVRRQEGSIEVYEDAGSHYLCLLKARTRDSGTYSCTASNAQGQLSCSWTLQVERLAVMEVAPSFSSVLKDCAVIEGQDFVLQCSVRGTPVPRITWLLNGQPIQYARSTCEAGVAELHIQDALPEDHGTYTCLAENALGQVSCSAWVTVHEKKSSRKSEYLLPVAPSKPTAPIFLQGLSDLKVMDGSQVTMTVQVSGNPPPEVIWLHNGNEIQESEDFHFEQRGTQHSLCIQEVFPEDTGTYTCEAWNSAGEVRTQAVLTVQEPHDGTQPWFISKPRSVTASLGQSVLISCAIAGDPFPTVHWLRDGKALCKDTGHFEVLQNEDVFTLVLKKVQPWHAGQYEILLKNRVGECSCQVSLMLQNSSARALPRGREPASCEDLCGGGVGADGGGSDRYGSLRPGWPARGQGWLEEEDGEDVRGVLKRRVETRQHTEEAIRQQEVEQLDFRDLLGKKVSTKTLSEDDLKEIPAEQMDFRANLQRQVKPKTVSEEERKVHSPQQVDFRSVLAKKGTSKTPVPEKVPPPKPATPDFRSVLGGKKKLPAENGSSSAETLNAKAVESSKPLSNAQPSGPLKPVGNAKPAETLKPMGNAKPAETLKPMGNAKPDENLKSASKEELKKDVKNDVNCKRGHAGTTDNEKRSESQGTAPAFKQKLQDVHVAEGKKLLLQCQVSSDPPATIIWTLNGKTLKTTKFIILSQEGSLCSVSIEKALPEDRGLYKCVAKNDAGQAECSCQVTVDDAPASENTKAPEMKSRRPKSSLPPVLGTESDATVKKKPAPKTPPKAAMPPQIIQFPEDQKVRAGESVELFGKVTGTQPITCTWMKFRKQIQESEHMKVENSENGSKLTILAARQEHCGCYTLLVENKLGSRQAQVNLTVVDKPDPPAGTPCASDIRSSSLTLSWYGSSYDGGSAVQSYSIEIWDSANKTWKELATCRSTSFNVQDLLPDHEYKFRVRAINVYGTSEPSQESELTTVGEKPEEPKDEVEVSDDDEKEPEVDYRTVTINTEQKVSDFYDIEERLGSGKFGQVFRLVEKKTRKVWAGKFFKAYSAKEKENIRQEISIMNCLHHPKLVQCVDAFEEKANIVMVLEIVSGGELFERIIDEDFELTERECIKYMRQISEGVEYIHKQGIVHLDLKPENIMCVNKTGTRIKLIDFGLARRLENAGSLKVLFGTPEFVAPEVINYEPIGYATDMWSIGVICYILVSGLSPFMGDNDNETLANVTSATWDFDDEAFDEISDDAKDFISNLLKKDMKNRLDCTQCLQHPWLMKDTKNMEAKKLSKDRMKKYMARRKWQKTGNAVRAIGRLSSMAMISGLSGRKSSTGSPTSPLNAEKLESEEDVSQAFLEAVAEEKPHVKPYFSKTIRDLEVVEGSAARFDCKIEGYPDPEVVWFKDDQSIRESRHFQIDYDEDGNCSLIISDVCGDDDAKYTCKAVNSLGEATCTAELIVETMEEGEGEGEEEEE
T1 sequence (P49840 whole entry, the tested form may be a part): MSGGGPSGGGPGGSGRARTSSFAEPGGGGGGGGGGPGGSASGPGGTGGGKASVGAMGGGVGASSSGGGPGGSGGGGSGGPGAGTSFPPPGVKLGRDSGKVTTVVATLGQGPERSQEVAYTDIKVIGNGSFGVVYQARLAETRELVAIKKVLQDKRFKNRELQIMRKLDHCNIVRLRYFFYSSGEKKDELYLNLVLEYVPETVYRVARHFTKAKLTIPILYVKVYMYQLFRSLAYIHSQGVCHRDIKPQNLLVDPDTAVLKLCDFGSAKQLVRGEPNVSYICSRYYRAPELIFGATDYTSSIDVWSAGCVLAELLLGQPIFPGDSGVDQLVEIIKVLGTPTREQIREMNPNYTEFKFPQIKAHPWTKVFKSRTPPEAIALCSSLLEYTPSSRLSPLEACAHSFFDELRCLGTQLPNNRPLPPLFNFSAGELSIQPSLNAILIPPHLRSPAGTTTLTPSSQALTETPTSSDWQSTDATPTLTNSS

C[C@](O)(Cn1cc(C#N)cn1)C(=O)Nc1cnc(C#N)c(C(F)(F)F)c1 [Compound 1065, (S)-3-(4-cyano-1H-pyrazol-1-yl)-N-(6-cyano-5-(trifluoromethyl)pyridin-3-yl)-2-hydroxy-2-methylpropanamide]
gross pathology (in words) ([1]; 100 and 200 mpk, 7 days): no gross pathology
Body wt. on sac. day ([1]; 100 mpk oral 7 days): 475 g and 333 g and 292 g
Day 0 body wt. ([1]; 100 mpk oral 7 days): 404 g and 280 g and 245 g
Body wt. on sac. day ([1]; 200 mpk oral 7 days): 326 g and 313 g and 424 g
Day 0 body wt. ([1]; 200 mpk oral 7 days): 270 g (2×) and 440 g
GPCR cross-reactivity (in words) [2]: no GPCR was inhibited by 50%; also recorded: No GPCR was inhibited by >50%
potency vs 1002 in inhibiting enzalutamide-resistant prostate cancer (in words) [3]: approximately two fold more potent than 1002
concentration at 30 h [4]: 561 nM
Conc. 1065 ([5]; 1 mg/kg): 81.58 nM and 87.25 nM and 120.1244 nM and 134.5505 nM and 129.9323 nM
Conc. 1065 ([5]; 5 mg/kg): 967.3936 nM and 798.7984 nM and 630.4879 nM and 691.1901 nM and 485.4264 nM
Conc. 1065 ([5]; 10 mg/kg): 637.641 nM and 915.1312 nM and 824.8076 nM and 681.9936 nM and 795.917 nM
Conc. 1065 ([5]; 20 mg/kg): 1286.902 nM and 1298.179 nM and 1360.687 nM and 1397.834 nM and 1193.986 nM
Serum Conc. ([5]; Table 2, rats 20 mg/kg, 24-30 hours after last dose): 561 nM
Serum Conc. ([5]; Table 3, 20 mg/kg Hershberger): 561 nM
serum drug level (bioavailability) ([5]; rats dosed at 20 mg/kg): 561 nM
Percent Control [6]: 6.4%
AUC0-24 ([7]; iv, 5 mg/kg): 31800 ng·h/mL
AUC(0-inf) ([7]; iv, 5 mg/kg): 40700 ng·h/mL
AUC(0-t) ([7]; iv, 5 mg/kg): 31800 ng·h/mL
C0 ([7]; iv, 5 mg/kg): 2510 ng/mL
Cmax ([7]; iv, 5 mg/kg): 2600 ng/mL
DN AUC0-24 ([7]; iv, 5 mg/kg): 6360
Tmax ([7]; iv, 5 mg/kg): 0.5 h
Vd ([7]; iv, 5 mg/kg): 1.86 L/kg
clearance ([7]; iv, 5 mg/kg): 2.05 mL/min/kg
half-life ([7]; iv, 5 mg/kg): 10.5 h
AUC(0-t) ([7]; po, 1 mg/kg): 7300 ng·h/mL
AUC0-24 ([7]; po, 1 mg/kg/day): 7300 ng·h/mL
AUC(0-t) ([7]; po, 1 mg/kg/day): 7300 ng·h/mL
Cmax ([7]; po, 1 mg/kg/day): 458 ng/mL
DN AUC0-24 ([7]; po, 1 mg/kg/day): 7300
Tmax ([7]; po, 1 mg/kg/day): 6 h
AUC(0-t) ([7]; po, 5 mg/kg): ~35000 ng·h/mL
AUC0-24 ([7]; po, 5 mg/kg/day): 34900 ng·h/mL
AUC(0-t) ([7]; po, 5 mg/kg/day): 34900 ng·h/mL
Cmax ([7]; po, 5 mg/kg/day): 2220 ng/mL
DN AUC0-24 ([7]; po, 5 mg/kg/day): 6980
Tmax ([7]; po, 5 mg/kg/day): 6 h
AUC0-24 ([7]; po, 10 mg/kg/day): 59500 ng·h/mL
AUC(0-t) ([7]; po, 10 mg/kg/day): 59500 ng·h/mL
Cmax ([7]; po, 10 mg/kg/day): 3550 ng/mL
DN AUC0-24 ([7]; po, 10 mg/kg/day): 5950
Tmax ([7]; po, 10 mg/kg/day): 6 h
AUC(0-t) ([7]; po, 20 mg/kg): 102000 ng·h/mL
AUC0-24 ([7]; po, 20 mg/kg/day): 102000 ng·h/mL
AUC(0-t) ([7]; po, 20 mg/kg/day): 102000 ng·h/mL
Cmax ([7]; po, 20 mg/kg/day): 5550 ng/mL
DN AUC0-24 ([7]; po, 20 mg/kg/day): 5120
Tmax ([7]; po, 20 mg/kg/day): 6 h
RLM Metebolism (H.L. min) [8]: 84 min
HLM Metabolism (H.L. min) [9]: STABLE
HLM % metabolized after 60 min ([9]; 60 min): 0%
Percent Control [10]: 45%
number of kinases bound (<50% of Percent of Control) [11]: 2
